Values of other authors, collected in patent US20100151056A1, “DIETARY SUPPLEMENTS FOR DECREASING THE LATENT FOREIGN DNA LOAD” (priority 2008, published 2010).
Read-outs that look alike come from different tables or passages of the source.

How the values were obtained:
[1] = tested on: EBV immediate-early protein Rta in P3HR1 cells
[2] = tested on: HBV cccDNA in HepG2-N10 cells; conditions: 22.9 ug/ml
[3] = tested on: LANA-1, v-cyclin, and v-FLIP proteins
[4] = tested on: KSHV latent genes (LANA-1, v-cyclin, v-FLIP)
cdk6 = conditions: BC-1, BCBL-1 and BC-3 cells, Western blot
[5] = tested on: Epstein-Barr virus in Raji cells; conditions: Raji cells superinfected with P2HR1 (LS) virus; read-out: concentration inhibiting EBV genome copy number and antigen expression by 50% (EC50)
caspase cascade = conditions: KSHV-positive B cells untreated and GA-treated, ELISA
B cells = conditions: 3 and 4 mM
LT1/LT2 promoter = conditions: BJAB cells, GA-treated vs untreated
AIF = conditions: KSHV-positive B cells, GA for 4 days
[6] = tested on: KSHV-positive and uninfected B cells

## O=C(O[C@@H]1Cc2c(O)cc(O)cc2O[C@@H]1c1cc(O)c(O)c(O)c1)c1cc(O)c(O)c(O)c1 [EGCG, Epigallocatechin gallate]
[1]; 70 mM EGCG
  P3HR1 cells expressing Rta: 9.8%
[1]; 100 mM EGCG
  P3HR1 cells expressing Rta: 0.5%
[2]
  reduction of HBV cccDNA concentration: 60%

## CC1(C)[C@@H](O[C@H]2O[C@H](C(=O)O)[C@@H](O)[C@H](O)[C@H]2O[C@@H]2O[C@H](C(=O)O)[C@@H](O)[C@H](O)[C@H]2O)CC[C@]2(C)[C@H]3C(=O)C=C4[C@@H]5C[C@@](C)(C(=O)O)CC[C@]5(C)CC[C@@]4(C)[C@]3(C)CC[C@@H]12 [GA, glycyrrhizic acid]
[3]; KSHV positive cells, BCBL-1, BC-3, BC-1 treated 2, 3, 6 days
  LANA-1 expression: decreased
[3]; KSHV-positive B cells following GA treatment, FACS
  cells over-expressing v-cyclin: 35-50%
[4]; GA 3 and 4 mM, BCBL-1 2 days, BC-3 3 days, BC-2 and BC-1 6 days
  LT1 transcripts (LANA-1 probe): dose-dependent decrease
[4]; GA-treated KSHV-positive B cells
  LT2 transcripts (v-FLIP and v-cyclin probes): increase
catalase; BC-1
  catalase activity increase: 3 fold
catalase; BC-3
  catalase activity increase: 4 fold
catalase; BCBL-1
  catalase activity increase: 2 fold
cdk6
  increase of cdk6 expression: 8- to 11 fold
[5]
  EC50: ~5 µM
Caspase cascade
  activation of the caspase cascade: no activation
B cells
  toxicity at the tested levels: not being toxic
KSHV-positive B cells; KSHV-negative BJAB control cells
  apoptosis in BJAB cells: did not result in apoptosis
KSHV-positive B cells; KSHV-positive cells, FACS
  apoptosis (TUNEL-positive cells): 80-95%
KSHV-positive B cells; uninfected B cells treated with GA
  disruption of mitochondrial membranes or DNA condensation: no disruptions
LT1/LT2 promoter
  LT1/LT2 promoter activity (luciferase expression): does not affect
AIF
  AIF localisation: diffuse nuclear staining
[6]; KSHV-positive B cells, after 6 days GA
  cells blocked in G1: 99%
[6]; uninfected cells, untreated or following GA
  cells blocked in G1: 25-50%
p53; BC-3 cells transfected with pLPCX/LANA-1, 4 mM GA for 4 days
  phosphorylated form of p53: very low concentration
p53; KSHV-positive B cells following GA
  p53 phosphorylated at Ser15: high concentration

## CCCCCCCCCCCCCC(=O)O[C@@H]1[C@@H](C)[C@@]2(O)[C@@H](C=C(CO)C[C@]3(O)C(=O)C(C)=C[C@@H]23)[C@@H]2C(C)(C)[C@]12OC(C)=O [TPA, 12-O-tetradecanoyl-phorbol-13-acetate, reference compound]
KSHV-positive B cells; TPA treatment (latent to lytic switch)
  disruption of mitochondrial membranes or DNA condensation: did not disrupt

## CC(/C=C/C(=O)NO)=C\[C@@H](C)C(=O)c1ccc(N(C)C)cc1 [TSA, reference compound]
[1]; following treatment with TSA
  P3HR1 cells expressing Rta: 23.4%

## C[C@H]1[C@H](OC(=O)CCC(=O)O)O[C@@H]2O[C@@]3(C)CC[C@H]4[C@H](C)CC[C@@H]1[C@@]24OO3 [artesunate, Artesunate]
CMV; 76 days after completion of therapy
  viremia after completion of therapy: no increase in viremia
CMV; CMV load kinetics during treatment
  viral decay T 1/2: 0.9 to 1.9 days
CMV; by day 7, oral 100 mg/day
  decrease of viral DNA load: 1.7-2.1 log
CMV; first 30 days of treatment
  adverse effects: no adverse effects
CMV; oral 100 mg/day
  time to rapid reduction in viral load and improved hematopoiesis: ≤ 10 days

## Nc1nc(O)c2ncn(COC(CO)CO)c2n1 [ganciclovir]
CMV; by day 7, initial ganciclovir treatment of the same patient
  reduction of viral DNA load: 1 log
